Measured values reported in patent publication US7223865B2, “Chromogenic compounds, and use thereof as enzyme substrates” (Biomerieux, priority 2003, dated 2007).

Assays:
Assay in all cases: L-alanine-aminopeptidase activity on gelled medium, Example 8
Assay type in all cases: cell-based
Design in all cases: key to growth: ++ means good growth; + means moderate growth; +/− means poor growth; NG means no growth
[1] = system: Staphylococcus aureus (NCTC 6571)
Procedure: (§1) A gelled medium comprising these three substrates is prepared as follows: 30 mg of each substrate are dissolved (heating) in 10 ml of sterile distilled water. Ten ml of this solution are then added to 90 ml of Columbia agar kept molten at 50° C.
(§2) Various strains of microorganisms derived from the NCTC collection (National Collection of Type Cultures, Colindale, UK) were seeded onto the media thus obtained according to multipoint inoculation: for each strain, a drop of 10 μl of a suspension at 0.5 McFarland is deposited onto each of the culture media.
(§3) The colonies formed were examined visually after incubation for 24 h and 48 h. The color and the growth of these colonies were noted.

[2] = system: E. coli O157 (NCTC 12079)
Procedure: as §1, §2, §3

[3] = system: Salmonella poona (NCTC 4840)
Procedure: as §1, §2, §3

[4] = system: Enterococcus faecalis (NCTC 755)
Procedure: as §1, §2, §3

[5] = system: Listeria monocytogenes (NCTC 11994)
Procedure: as §1, §2, §3

[6] = system: Enterobacter cloacae (NCTC 11936)
Procedure: as §1, §2, §3

[7] = system: Salmonella typhimurium (NCTC 74)
Procedure: as §1, §2, §3

[8] = system: Klebsiella pneumoniae (NCTC 10896)
Procedure: as §1, §2, §3

[9] = system: Shigella sonnei (NCTC 9774)
Procedure: as §1, §2, §3

[10] = system: Enterococcus faecium (NCTC 7171)
Procedure: as §1, §2, §3

[11] = system: Staphylococcus aureus (NCTC 11939)
Procedure: as §1, §2, §3

[12] = system: Pseudomonas aeruginosa (NCTC 10662)
Procedure: as §1, §2, §3

[13] = system: Burkholderia cepacia (NCTC 10743)
Procedure: as §1, §2, §3

[14] = system: Enterococcus faecalis (NCTC 12697)
Procedure: as §1, §2, §3

[15] = system: Serratia marcescens (NCTC 10211)
Procedure: as §1, §2, §3

C[C@H](N)C(=O)N[C@@H](C)C(=O)N[C@@H](C)C(=O)Nc1ccc(-c2c3ccccc3[n+](C)c3ccccc23)cc1.[Cl-] [L-Ala-L-Ala-L-Ala-4-AP-10-MA]
Orange: color of colonies ([2]; 24 h) | color of colonies ([2]; 48 h) | color of colonies ([3]; 24 h) | color of colonies ([3]; 48 h) | color of colonies ([6]; 24 h) | color of colonies ([6]; 48 h) | color of colonies ([7]; 24 h) | color of colonies ([7]; 48 h) | color of colonies ([8]; 24 h) | color of colonies ([8]; 48 h) | color of colonies ([9]; 24 h) | color of colonies ([9]; 48 h) | color of colonies ([12]; 24 h) | color of colonies ([12]; 48 h) | color of colonies ([13]; 24 h) | color of colonies ([13]; 48 h) | color of colonies ([15]; 24 h) | color of colonies ([15]; 48 h)
Colorless: color of colonies ([1]; 24 h) | color of colonies ([1]; 48 h) | color of colonies ([4]; 24 h) | color of colonies ([4]; 48 h) | color of colonies ([5]; 24 h) | color of colonies ([5]; 48 h) | color of colonies ([10]; 24 h) | color of colonies ([10]; 48 h) | color of colonies ([11]; 24 h) | color of colonies ([11]; 48 h) | color of colonies ([14]; 24 h) | color of colonies ([14]; 48 h)
++: growth ([1]; 24 h) | growth ([1]; 48 h) | growth ([2]; 24 h) | growth ([2]; 48 h) | growth ([3]; 24 h) | growth ([3]; 48 h) | growth ([4]; 24 h) | growth ([4]; 48 h) | growth ([5]; 24 h) | growth ([5]; 48 h) | growth ([6]; 24 h) | growth ([6]; 48 h) | growth ([7]; 24 h) | growth ([7]; 48 h) | growth ([8]; 24 h) | growth ([8]; 48 h) | growth ([9]; 24 h) | growth ([9]; 48 h) | growth ([10]; 24 h) | growth ([10]; 48 h) | growth ([11]; 24 h) | growth ([11]; 48 h) | growth ([12]; 24 h) | growth ([12]; 48 h) | growth ([13]; 24 h) | growth ([13]; 48 h) | growth ([14]; 24 h) | growth ([14]; 48 h) | growth ([15]; 24 h) | growth ([15]; 48 h)

C[C@H](N)C(=O)N[C@@H](C)C(=O)Nc1ccc(-c2c3ccccc3[n+](C)c3ccccc23)cc1.[Cl-] [L-Ala-L-Ala-4-AP-10-MA]
Orange: color of colonies ([2]; 24 h) | color of colonies ([2]; 48 h) | color of colonies ([3]; 24 h) | color of colonies ([3]; 48 h) | color of colonies ([6]; 24 h) | color of colonies ([6]; 48 h) | color of colonies ([7]; 24 h) | color of colonies ([7]; 48 h) | color of colonies ([8]; 24 h) | color of colonies ([8]; 48 h) | color of colonies ([9]; 24 h) | color of colonies ([9]; 48 h) | color of colonies ([12]; 24 h) | color of colonies ([12]; 48 h) | color of colonies ([13]; 24 h) | color of colonies ([13]; 48 h) | color of colonies ([15]; 24 h) | color of colonies ([15]; 48 h)
NG: growth ([1]; 24 h) | growth ([1]; 48 h)
++: growth ([2]; 24 h) | growth ([2]; 48 h) | growth ([3]; 24 h) | growth ([3]; 48 h) | growth ([4]; 24 h) | growth ([4]; 48 h) | growth ([5]; 24 h) | growth ([5]; 48 h) | growth ([6]; 24 h) | growth ([6]; 48 h) | growth ([7]; 24 h) | growth ([7]; 48 h) | growth ([8]; 24 h) | growth ([8]; 48 h) | growth ([9]; 24 h) | growth ([9]; 48 h) | growth ([10]; 24 h) | growth ([10]; 48 h) | growth ([11]; 24 h) | growth ([11]; 48 h) | growth ([12]; 24 h) | growth ([12]; 48 h) | growth ([13]; 24 h) | growth ([13]; 48 h) | growth ([14]; 24 h) | growth ([14]; 48 h) | growth ([15]; 24 h) | growth ([15]; 48 h)
Colorless: color of colonies ([4]; 24 h) | color of colonies ([4]; 48 h) | color of colonies ([5]; 24 h) | color of colonies ([5]; 48 h) | color of colonies ([10]; 24 h) | color of colonies ([10]; 48 h) | color of colonies ([11]; 24 h) | color of colonies ([11]; 48 h) | color of colonies ([14]; 24 h) | color of colonies ([14]; 48 h)
